Source: patent US12514861B2, “Targeting DNA-PKCS and B7-H1 to treat cancer” (Mayo Foundation for Medical Education and Research, priority 2014, dated 2026)
Where two headings read alike, the source gives them in different places.

Experiments:
[1] = target: DNA-PKcs (Homo sapiens, UniProt P78527); conditions: cited from earlier work
[2] = test system: Mock/624mel cells; assay: MTS tumor cell survival assay; assay type: cell-based; conditions: pretreatment with 10 uM NU7026 for 1 hour, MTS 72 hours after Dox
Procedure: (§7) Cells were pre-treated with DMSO or NU7026 (10 uM) for 1 hour before treatment with doxorubicin (Dox). The relative survival of tumor cells was measured by MTS assay 72 hours after Dox treatment.
(§8) To test whether the association of B7-H1 with DNA-PKcs is a mechanism of drug resistance, the effects of NU7026 on drug sensitivity of B7-H1- or Mock-transfected 624mel cells were tested. […] Using the same dose (10 uM) of NU7026, experiments were conducted to determine whether NU7026 would affect the drug sensitivity of B7-H1/624mel cells.

[3] = test system: B7-H1/624mel cells; assay: MTS tumor cell survival assay; assay type: cell-based; conditions: for drug resistance of B7-H1/624mel cells compared with Mock/624mel cells (tumor cell survival): varying drug concentrations, 72 hours of culture, MTS assay
Procedure: as §7
Experiments were conducted to test whether B7-H1-expressing tumors would show resistance to drugs that cause DNA damage. Along with cisplatin, which crosslinks DNA, doxorubicin (a topoisomerase II inhibitor that leads to generation of free radicals) and SN38 (a topoisomerase I inhibitor) were tested. Drug sensitivity in B7-H1- and Mock-transfected 624mel melanoma cells was examined in cultures with varying concentrations of the drugs. After 72 hours of culture, tumor cell survival was measured with a MTS assay (Pei et al., Cancer Cell 16:259-266, 2009).
as §8

[4] = target: T1, association of B7-H1 with DNA-PKcs (Homo sapiens, UniProt P78527); assay: Immuno-precipitation assay of B7-H1 association with DNA-PKcs; assay type: cell-based; conditions: B7-H1 positive human breast cancer cells (MBA-MD-231)
T1 construct: B7-H1 positive human breast cancer cells (MBA-MD-231) were used; endogenous in cells; host or cells: MDA-MB-231 human breast cancer cells
Procedure: (§1) MBA-MD-231 human breast cancer cells, which are positive for B7-H1, were incubated with NU7026, an inhibitor of DNA-PKCs. […] FIG. 15B is a series of pictures from an immunofluorescence assay in which the cells treated with doxorubicin, NU7026, or both, and stained for DNA-PKcs, DNA, or B7-H1. Doxorubicin-induced co-localization (arrow, upper right panel) of B7-H1 and DNA-PKcs at the nucleus was blocked by NU7026 (lower right panel).
(§2) B7-H1 positive human breast cancer cells (MBA-MD-231) were used to examine the association of DNA-PKcs and B7-H1.

[5] = test system: PI3K; conditions: read-out: IC50 for inhibition of PI3K; cited from earlier work
[6] = target: T2, co-localization of B7-H1 and DNA-PKcs at the nucleus (Homo sapiens, UniProt P78527); assay: Immunofluorescence staining of B7-H1 and DNA-PKcs co-localization; assay type: cell-based
T2 construct: B7-H1 positive human breast cancer cells (MBA-MD-231) were used; endogenous in cells; host or cells: MDA-MB-231 human breast cancer cells
Procedure: FIG. 6 is a series of pictures showing co-localization of B7-H1 and DNA-PKcs. A human breast tumor cell line (MDA-MB-231) was treated with doxorubicin (2 ug/ml) for 2 hours. […] Arrows or arrowheads indicate B7-H1 in plasma or in nuclei, respectively.
as §1
B7-H1 undergoes redistribution from the cell surface into the nucleus in human breast tumor cells upon treatment with the cytotoxic drug, doxorubicin (Ghebeh et al., supra).
as §2

[7] = test system: ERK1/2 activation in B7-H1/624mel cells; assay: Intracellular flow cytometry for phospho-ERK1/2; assay type: cell-based; conditions: 10 uM, 24 hours
Procedure: (§3) FIG. 9 is a series of graphs plotting the levels of phosphorylated ERK (top graphs) and total ERK (bottom graphs) in Mock/624mel (left) and B7-H1/624mel (right) tumor cells treated with DMSO or NU7026. Cells were treated with DMSO or NU7026 (10 uM) for 24 hours before intracellular staining for phospho-ERK or total ERK. Numbers are MFI. Inhibition of DNA-PKcs reduced ERK activation, as indicated in the diagram on the right.
(§4) To test the role of DNA-PKcs in activation of the MAPK signal cascade, tumor cells were treated with NU7026, a DNA-PKcs specific inhibitor. […] As a mechanism of action of ERK1/2 in drug resistance, ERK1/2 phosphorylates Bim and enhances degradation of Bim in tumor cells (Gillings, et al., FEBS J 276:6050-6062, 2009; and Luciano et al., Oncogene 22:6785-6793, 2003).

[8] = test system: ERK1/2 activation in Mock/624mel cells; assay: Intracellular flow cytometry for phospho-ERK1/2; assay type: cell-based; conditions: 10 uM, 24 hours
Procedure: as §3, §4

[9] = test system: B7-H1/624mel cells; assay: Apoptosis by Annexin V binding and TMRE staining; assay type: cell-based; conditions: doxorubicin 1.5 ug/ml, 48 hr
Description: (§5) FIG. 1A is a series of graphs plotting relative survival of Mock/624mel (triangles) and B7-H1/624mel (squares) cells treated with the indicated drugs, as determined by MTS (3-(4,5-dimethylthiazol-2-yl)-5-(3-carboxymethoxyphenyl)-2-(4-sulfophenyl)-2H-tetrazolium) assay. The p-value for area under the curve (dose-response curves) was significant (p<0.01) for treatment with cisplatin (left), doxorubicin (center), and SN38 (right). One of three experiments is shown. Apoptosis of tumor cells treated with doxorubicin (1.5 ug/ml, 48 hr.) was analyzed by tetramethylrhodamine ethyl ester (TMRE) and Annexin V staining (FIG. 1), and by intracellular staining for active caspase-3 (FIG. 1C). Numbers are percentages of gated population.
(§6) Experiments were conducted to test whether B7-H1-expressing tumors would show resistance to drugs that cause DNA damage. […] After 72 hours of culture, tumor cell survival was measured with a MTS assay (Pei et al., Cancer Cell 16:259-266, 2009). […] Since a mechanism of action of most cytotoxic drugs is to induce apoptosis (Sedletska et al., Curr Med Chem Anti-cancer Agents 5:251-265, 2005; and Wang et al., J Biol Chem 279:25535-25543, 2004), apoptosis of B7-H1/624mel and Mock/624mel tumor cells was measured and compared after treatment with doxorubicin. […]

[10] = test system: B7-H1/624mel cells; assay: Intracellular staining for active caspase-3; assay type: cell-based; conditions: doxorubicin 1.5 ug/ml, 48 hr
Description: as §5, §6

T2 sequence (P78527 whole entry): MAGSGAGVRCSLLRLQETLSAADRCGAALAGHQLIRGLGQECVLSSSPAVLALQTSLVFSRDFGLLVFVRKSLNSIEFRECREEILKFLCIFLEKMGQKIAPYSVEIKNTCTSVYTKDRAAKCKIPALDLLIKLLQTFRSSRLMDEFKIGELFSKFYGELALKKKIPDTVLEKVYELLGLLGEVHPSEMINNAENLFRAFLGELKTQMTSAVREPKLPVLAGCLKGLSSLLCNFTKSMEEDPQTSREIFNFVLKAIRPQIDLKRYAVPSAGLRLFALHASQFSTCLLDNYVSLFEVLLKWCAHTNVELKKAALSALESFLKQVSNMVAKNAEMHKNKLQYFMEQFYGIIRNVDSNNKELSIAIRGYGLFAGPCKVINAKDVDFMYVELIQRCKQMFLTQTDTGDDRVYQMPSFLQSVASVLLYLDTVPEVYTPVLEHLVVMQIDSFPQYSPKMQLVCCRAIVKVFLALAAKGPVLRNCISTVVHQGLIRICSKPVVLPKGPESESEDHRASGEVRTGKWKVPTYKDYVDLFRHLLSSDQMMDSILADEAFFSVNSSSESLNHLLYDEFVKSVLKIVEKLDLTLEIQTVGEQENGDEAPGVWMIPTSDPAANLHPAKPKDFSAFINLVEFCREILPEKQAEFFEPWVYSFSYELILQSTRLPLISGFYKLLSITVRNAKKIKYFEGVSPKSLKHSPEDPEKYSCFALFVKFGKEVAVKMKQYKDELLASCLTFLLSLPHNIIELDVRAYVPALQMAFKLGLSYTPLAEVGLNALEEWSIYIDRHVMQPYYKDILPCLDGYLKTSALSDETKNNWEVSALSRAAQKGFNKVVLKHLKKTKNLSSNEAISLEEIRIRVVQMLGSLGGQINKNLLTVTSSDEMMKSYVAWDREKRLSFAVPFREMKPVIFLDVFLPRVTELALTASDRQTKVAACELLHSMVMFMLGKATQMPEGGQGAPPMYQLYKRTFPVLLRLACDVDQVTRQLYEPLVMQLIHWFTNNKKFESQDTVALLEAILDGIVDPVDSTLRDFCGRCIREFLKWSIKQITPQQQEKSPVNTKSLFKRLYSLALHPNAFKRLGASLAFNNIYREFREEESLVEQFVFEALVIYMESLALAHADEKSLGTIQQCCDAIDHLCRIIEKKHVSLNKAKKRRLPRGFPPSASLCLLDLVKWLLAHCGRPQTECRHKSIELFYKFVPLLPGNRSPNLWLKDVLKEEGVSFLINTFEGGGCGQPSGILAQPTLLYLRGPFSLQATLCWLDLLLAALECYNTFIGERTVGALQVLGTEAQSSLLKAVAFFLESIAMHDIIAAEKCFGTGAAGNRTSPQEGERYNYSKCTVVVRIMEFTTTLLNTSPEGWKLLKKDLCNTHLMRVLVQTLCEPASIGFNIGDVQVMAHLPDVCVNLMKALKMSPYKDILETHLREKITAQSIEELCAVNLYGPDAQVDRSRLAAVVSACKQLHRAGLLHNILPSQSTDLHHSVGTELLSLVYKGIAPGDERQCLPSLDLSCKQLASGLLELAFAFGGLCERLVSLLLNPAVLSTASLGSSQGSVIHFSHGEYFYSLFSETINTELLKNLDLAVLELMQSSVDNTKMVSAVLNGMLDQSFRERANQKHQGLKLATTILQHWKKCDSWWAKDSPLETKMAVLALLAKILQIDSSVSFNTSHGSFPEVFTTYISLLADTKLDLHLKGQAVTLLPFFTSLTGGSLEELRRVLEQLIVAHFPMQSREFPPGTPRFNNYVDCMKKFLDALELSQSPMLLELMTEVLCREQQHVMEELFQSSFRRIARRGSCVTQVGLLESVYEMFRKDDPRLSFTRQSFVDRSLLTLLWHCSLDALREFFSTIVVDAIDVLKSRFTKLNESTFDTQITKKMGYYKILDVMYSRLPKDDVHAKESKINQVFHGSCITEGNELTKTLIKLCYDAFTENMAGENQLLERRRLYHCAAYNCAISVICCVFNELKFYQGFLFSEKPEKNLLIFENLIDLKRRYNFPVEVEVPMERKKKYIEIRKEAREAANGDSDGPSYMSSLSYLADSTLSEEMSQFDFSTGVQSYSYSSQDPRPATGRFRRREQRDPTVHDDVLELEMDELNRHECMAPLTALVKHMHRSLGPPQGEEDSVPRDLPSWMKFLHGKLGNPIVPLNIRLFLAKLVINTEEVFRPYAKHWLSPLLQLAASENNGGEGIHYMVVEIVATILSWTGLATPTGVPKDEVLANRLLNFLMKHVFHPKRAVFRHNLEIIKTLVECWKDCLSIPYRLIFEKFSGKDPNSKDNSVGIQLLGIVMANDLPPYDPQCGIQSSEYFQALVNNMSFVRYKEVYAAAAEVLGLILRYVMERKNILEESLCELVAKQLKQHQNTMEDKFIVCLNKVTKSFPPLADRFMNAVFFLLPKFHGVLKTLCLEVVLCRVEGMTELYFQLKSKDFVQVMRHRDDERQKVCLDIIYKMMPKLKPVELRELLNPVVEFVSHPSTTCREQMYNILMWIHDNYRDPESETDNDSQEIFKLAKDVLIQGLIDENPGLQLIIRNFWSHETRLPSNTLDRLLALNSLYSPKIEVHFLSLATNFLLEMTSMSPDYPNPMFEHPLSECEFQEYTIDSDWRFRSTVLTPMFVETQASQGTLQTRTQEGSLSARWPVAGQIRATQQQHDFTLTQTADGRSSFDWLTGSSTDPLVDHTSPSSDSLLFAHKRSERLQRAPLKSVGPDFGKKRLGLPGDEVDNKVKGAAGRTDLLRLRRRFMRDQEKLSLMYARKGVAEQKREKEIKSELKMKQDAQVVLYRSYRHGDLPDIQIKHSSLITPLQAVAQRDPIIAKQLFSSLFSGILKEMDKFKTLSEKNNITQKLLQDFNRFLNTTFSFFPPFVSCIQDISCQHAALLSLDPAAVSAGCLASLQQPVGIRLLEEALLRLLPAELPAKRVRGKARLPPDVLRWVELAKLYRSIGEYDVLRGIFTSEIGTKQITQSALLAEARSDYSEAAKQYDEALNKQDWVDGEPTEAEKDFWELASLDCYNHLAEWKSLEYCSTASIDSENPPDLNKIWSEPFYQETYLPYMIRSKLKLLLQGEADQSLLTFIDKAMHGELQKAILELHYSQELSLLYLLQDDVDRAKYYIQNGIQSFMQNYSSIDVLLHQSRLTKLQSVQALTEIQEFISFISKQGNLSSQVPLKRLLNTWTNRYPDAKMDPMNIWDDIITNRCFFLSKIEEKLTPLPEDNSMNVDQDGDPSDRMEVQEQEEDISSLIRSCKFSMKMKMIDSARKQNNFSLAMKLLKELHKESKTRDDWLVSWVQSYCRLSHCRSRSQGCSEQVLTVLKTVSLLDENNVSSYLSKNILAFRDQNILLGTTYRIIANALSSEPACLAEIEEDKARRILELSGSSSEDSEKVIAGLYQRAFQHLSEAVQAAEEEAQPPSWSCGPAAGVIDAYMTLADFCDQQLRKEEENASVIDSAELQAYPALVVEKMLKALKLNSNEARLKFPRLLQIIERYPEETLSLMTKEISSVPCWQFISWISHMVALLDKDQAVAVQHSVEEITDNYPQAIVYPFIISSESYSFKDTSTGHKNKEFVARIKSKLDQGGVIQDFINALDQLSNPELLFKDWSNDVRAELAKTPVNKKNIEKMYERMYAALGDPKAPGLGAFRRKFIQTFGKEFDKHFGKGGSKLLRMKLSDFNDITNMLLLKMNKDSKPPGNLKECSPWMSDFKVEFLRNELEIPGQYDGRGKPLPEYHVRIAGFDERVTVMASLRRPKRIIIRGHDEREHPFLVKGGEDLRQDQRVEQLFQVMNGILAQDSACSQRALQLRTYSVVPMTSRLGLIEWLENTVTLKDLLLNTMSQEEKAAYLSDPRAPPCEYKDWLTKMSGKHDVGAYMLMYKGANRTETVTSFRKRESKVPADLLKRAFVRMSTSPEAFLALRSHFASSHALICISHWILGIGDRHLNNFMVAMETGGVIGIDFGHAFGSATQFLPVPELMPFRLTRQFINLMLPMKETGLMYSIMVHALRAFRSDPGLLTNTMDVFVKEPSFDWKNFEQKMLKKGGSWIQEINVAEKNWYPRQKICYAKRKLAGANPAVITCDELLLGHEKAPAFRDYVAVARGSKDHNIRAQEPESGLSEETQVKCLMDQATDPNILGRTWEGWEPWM
T1 sequence (P78527 whole entry): as above

O=c1cc(N2CCOCC2)oc2c1ccc1ccccc12 [NU7026]
inhibition of DNA-PKcs activity ([1]; 10 uM): completely inhibits
IC50 ([1]; read-out: IC50 for inhibiting DNA-PKcs activity): 230 nM
IC50 ([1]; read-out: IC50 to inhibit DNA-PKcs): 230 nM
effect on drug sensitivity of Mock/624mel cells [2]: increased the drug sensitivity
effect on resistance of B7-H1/624mel cells to doxorubicin ([3]; pretreatment with 10 uM NU7026 for 1 hour, MTS 72 hours after Dox): lost their resistance to doxorubicin
effect on association of B7-H1 with DNA-PKcs [4]: abolished
IC50 [5]: 13000 nM
effect on doxorubicin-induced co-localization of B7-H1 and DNA-PKcs at the nucleus ([6]; MBA-MD-231 cells, 1 μM NU7026): blocked
decrease of activation of ERK1/2 (phospho-ERK) [7]: ~2 fold
decrease of activation of ERK1/2 (phospho-ERK) [8]: not

CCc1c2c(nc3ccc(O)cc13)-c1cc3c(c(=O)n1C2)COC(=O)[C@]3(O)CC [SN38]
drug resistance of B7-H1/624mel cells compared with Mock/624mel cells (tumor cell survival) [3]: more resistant

N.N.[Cl][Pt][Cl] [cisplatin]
drug resistance of B7-H1/624mel cells compared with Mock/624mel cells (tumor cell survival) [3]: more resistant

COc1cccc2c1C(=O)c1c(O)c3c(c(O)c1C2=O)C[C@@](O)(C(=O)CO)C[C@@H]3O[C@H]1C[C@H](N)[C@H](O)[C@H](C)O1 [doxorubicin]
drug resistance of B7-H1/624mel cells compared with Mock/624mel cells (tumor cell survival) [3]: more resistant
apoptosis in B7-H1/624mel cells compared to Mock/624mel cells (fold less) [9]: 5 fold
localization of B7-H1 and DNA-PKcs after treatment with cytotoxic drug ([6]; MDA-MB-231 cells, doxorubicin 2 ug/ml, 2 hours): co-localization of B7-H1 and DNA-PKcs was observed in the nuclei
level of active caspase-3 in B7-H1/624mel cells compared with Mock/624mel cells [10]: lower
